In patent US11091478B2 (Fochon Pharmaceuticals, Ltd., priority 2017, dated 2021) one finds IC50 data, which are given here for 15 compounds.

For experiment [1], the system named is DOHH2 cells. Put plainly: Cell proliferation assay (MTS), DOHH2 cells, 120 h. The format is cell-based. The settings on record: Homo sapiens, DOHH-2, 120 h. Summed up: (§1)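 Treatment lasts 72 h for RS4;11 and 120 h for DOHH2 cells seeded at 5000 per well in serum-containing RPMI-1640. A 2 h MTS step, halted with 10% SDS, precedes dual-wavelength absorbance reading and IC50 fitting.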

Experiment [2] relates to RS4;11 cells. Put plainly: Cell proliferation assay (MTS), RS4;11 cells, 72 h. The format is cell-based. The settings on record: Homo sapiens, RS4-11, 72 h. Summed up:
as §1

A word on the IC50: it is the concentration needed to halve the response being measured. Read a low IC50 as inhibition by little substance. As for `CC(=O)N1CCC([C@@H]2COc3cc(S(=O)(=O)NC(=O)c4ccc(N5CCN(CC6=C(c7ccc(Cl)cc7)CC(C)(C)CC6)CC5)cc4Oc4cnc5[nH]ccc5c4)cc([N+](=O)[O-])c3N2)CC1` [Example 2-224, (R)-2-((1H-pyrrolo[2,3-b]pyridin-5-yl)oxy)-N-((3-(1-acetylpiperidin-4-yl)-5-nitro-3,4-dihydro-2H-benzo[b][1,4]oxazin-7-yl)sulfo-nyl)-4-(4-((4′-chloro-5,5-dimethyl-3,4,5,6-tetrahydro-[1,1′-biphenyl]-2-yl)methyl)piper-azin-1-yl)benzamide], the half-maximal inhibitory concentration (IC50) in experiment [1] was 3 nM; in experiment [2] it was 4 nM.

Consider `CC1(C)CCC(CN2CCN(c3ccc(C(=O)NS(=O)(=O)c4cc5c(c([N+](=O)[O-])c4)N[C@@H](CCO)CO5)c(Oc4cnc5[nH]ccc5c4)c3)CC2)=C(c2ccc(Cl)cc2)C1` [Example 2-13, (S)-2-((1H-pyrrolo[2,3-b]pyridin-5-yl)oxy)-4-(4-((4′-chloro-5,5-dimethyl-3,4,5,6-tetra-hydro-[1,1′-biphenyl]-2-yl)methyl)piperazin-1-yl)-N-((3-(2-hydroxyethyl)-5-nitro-3,4-dihydro-2H-benzo[b][1,4]oxazin-7-yl)sulfonyl)benzamide], for which the results for the IC50 in experiment [1] and in experiment [2] were 33 nM and 9 nM, respectively.

Turning to `CN1CCN(CC[C@@H]2COc3cc(S(=O)(=O)NC(=O)c4ccc(N5CCN(CC6=C(c7ccc(Cl)cc7)CC(C)(C)CC6)CC5)cc4Oc4cnc5[nH]ccc5c4)cc([N+](=O)[O-])c3N2)CC1` [Example 2-14, (R)-2-((1H-pyrrolo[2,3-b]pyridin-5-yl)oxy)-4-(4-((4′-chloro-5,5-dimethyl-3,4,5,6-tetra-hydro-[1,1′-biphenyl]-2-yl)methyl)piperazin-1-yl)-N-((3-(2-(4-methylpiperazin-1-yl)eth-yl)-5-nitro-3,4-dihydro-2H-benzo[b][1,4]oxazin-7-yl)sulfonyl)benzamide], the figures for the IC50 in experiment [1] and in experiment [2] were 15 nM and 4 nM, respectively.

On to `CC1(C)CCC(CN2CCN(c3ccc(C(=O)NS(=O)(=O)c4cc5c(c([N+](=O)[O-])c4)N[C@H](Cc4ccccc4Cl)CO5)c(Oc4cnc5[nH]ccc5c4)c3)CC2)=C(c2ccc(Cl)cc2)C1` [Example 2-159, (R)-2-((1H-pyrrolo[2,3-b]pyridin-5-yl)oxy)-4-(4-((4′-chloro-5,5-dimethyl-3,4,5,6-tetra-hydro-[1,1′-biphenyl]-2-yl)methyl)piperazin-1-yl)-N-((3-(2-chlorobenzyl)-5-nitro-3,4-dihydro-2H-benzo[b][1,4]oxazin-7-yl)sulfo-nyl)benzamide], for which the results for the IC50 in experiment [1] and in experiment [2] were 47 nM and 29 nM, respectively.

In the case of `CC1(C)CCC(CN2CCN(c3ccc(C(=O)NS(=O)(=O)c4cc5c(c([N+](=O)[O-])c4)NC(C4CCOCC4)CO5)c(Oc4cnc5[nH]ccc5c4)c3)CC2)=C(c2ccc(Cl)cc2)C1` (stereo not drawn) [Example 2-185, 2-((1H-pyrrolo[2,3-b]pyridin-5-yl)oxy)-4-(4-((4′-chloro-5,5-dimethyl-3,4,5,6-tetra-hydro[1,1′-biphenyl]-2-yl)methyl)piperazin-1-yl)-N-((5-nitro-3-(tetrahydro-2H-pyran-4-yl)-3,4-dihydro-2H-benzo[b][1,4]oxazin-7-yl)sulfonyl)benzamide], the IC50 in experiment [1] was 3 nM; in experiment [2], 1 nM.

In the case of `CC1(C)CCC(CN2CCN(c3ccc(C(=O)NS(=O)(=O)c4cc5c(c([N+](=O)[O-])c4)N[C@@H](CN4CC(C)(O)C4)CO5)c(Oc4cnc5[nH]ccc5c4)c3)CC2)=C(c2ccc(Cl)cc2)C1` [Example 2-25, (S)-2-((1H-pyrrolo[2,3-b]pyridin-5-yl)oxy)-4-(4-((4′-chloro-5,5-dimethyl-3,4,5,6-tetra-hydro-[1,1′-biphenyl]-2-yl)methyl)piperazin-1-yl)-N-((3-((3-hydroxy-3-methylazetidin-1-yl)methyl)-5-nitro-3,4-dihydro-2H-ben-zo[b][1,4]oxazin-7-yl)sulfonyl)benzamide], the IC50 in experiment [1] came to 10 nM; in experiment [2] it was 8 nM.

With `CC1(C)CCC(CN2CCN(c3ccc(C(=O)NS(=O)(=O)c4cc5c(c([N+](=O)[O-])c4)N[C@@H](Cc4ccccc4F)CO5)c(Oc4cnc5[nH]ccc5c4)c3)CC2)=C(c2ccc(Cl)cc2)C1` [Example 2-189, (S)-2-((1H-pyrrolo[2,3-b]pyridin-5-yl)oxy)-4-(4-((4′-chloro-5,5-dimethyl-3,4,5,6-tetra-hydro-[1,1′-biphenyl]-2-yl)methyl)piperazin-1-yl)-N-((3-(2-fluorobenzyl)-5-nitro-3,4-dihydro-2H-benzo[b][1,4]oxazin-7-yl)sulfo-nyl)benzamide], the IC50 in experiment [1] amounted to 148 nM; in experiment [2] it was 78 nM.

Regarding `CC1(C)CCC(CN2CCN(c3ccc(C(=O)NS(=O)(=O)c4cc5c(c([N+](=O)[O-])c4)N[C@H](CS(C)(=O)=O)CO5)c(Oc4cnc5[nH]ccc5c4)c3)CC2)=C(c2ccc(Cl)cc2)C1` [Example 2-145, (S)-2-((1H-pyrrolo[2,3-b]pyridin-5-yl)oxy)-4-(4-((4′-chloro-5,5-dimethyl-3,4,5,6-tetra-hydro-[1,1′-biphenyl]-2-yl)methyl)piperazin-1-yl)-N-((3-((methylsulfonyl)methyl)-5-nitro-3,4-dihydro-2H-benzo[b][1,4]oxazin-7-yl)sulfonyl)benzamide], the half-inhibitory concentration (IC50) in experiment [1] turned out to be 87 nM; in experiment [2], 1 nM.

Turning to `COC(=O)NC[C@H]1COc2cc(S(=O)(=O)NC(=O)c3ccc(N4CCN(CC5=C(c6ccc(Cl)cc6)CC(C)(C)CC5)CC4)cc3Oc3cnc4[nH]ccc4c3)cc([N+](=O)[O-])c2N1` [Example 2-60, methyl (S)-((7-(N-(2-((1H-pyrrolo[2,3-b]pyridin-5-yl)oxy)-4-(4-((4′-chloro-5,5-dimethyl-3,4,5,6-tetrahydro-[1,1′-biphenyl]-2-yl)methyl)piperazin-1-yl)benzoyl)sulfamoyl)-5-nitro-3,4-dihydro-2H-benzo[b][1,4]oxazin-3-yl)meth-yl)carbamate], the results for the half-inhibitory concentration (IC50) in experiment [1] and in experiment [2] were 82 nM and 1 nM, respectively.

With `CC1(C)CCC(CN2CCN(c3ccc(C(=O)NS(=O)(=O)c4cc5c(c([N+](=O)[O-])c4)N[C@H](C4CCOCC4)CO5)c(Oc4cnc5[nH]ccc5c4)c3)CC2)=C(c2ccc(Cl)cc2)C1` [Example 2-186, (R)-2-((1H-pyrrolo[2,3-b]pyridin-5-yl)oxy)-4-(4-((4′-chloro-5,5-dimethyl-3,4,5,6-tetra-hydro-[1,1′-biphenyl]-2-yl)methyl)piperazin-1-yl)-N-((5-nitro-3-(tetrahydro-2H-pyran-4-yl)-3,4-dihydro-2H-benzo[b][1,4]oxazin-7-yl)sulfonyl)benzamide], the concentration for half-maximal inhibition (IC50) in experiment [1] was determined as 13 nM; in experiment [2], 1 nM.

`CC1(C)CCC(CN2CCN(c3ccc(C(=O)NS(=O)(=O)c4cc5c(c([N+](=O)[O-])c4)N[C@@H](CO)C5)c(Oc4cnc5[nH]ccc5c4)c3)CC2)=C(c2ccc(Cl)cc2)C1` [Example 1-11, (R)-2-((1H-pyrrolo[2,3-b]pyridin-5-yl)oxy)-4-(4-((4′-chloro-5,5-dimethyl-3,4,5,6-tetra-hydro-[1,1′-biphenyl]-2-yl)methyl)piperazin-1-yl)-N-((2-(hydroxymethyl)-7-nitroindolin-5-yl)sulfonyl)benzamide]: the IC50 in experiment [1] came to 154 nM; in experiment [2], 69 nM.

Turning to `C[C@@H]1CN(C[C@@H]2COc3cc(S(=O)(=O)NC(=O)c4ccc(N5CCN(CC6=C(c7ccc(Cl)cc7)CC(C)(C)CC6)CC5)cc4Oc4cnc5[nH]ccc5c4)cc([N+](=O)[O-])c3N2)CCN1C1COC1` [Example 2-22, 2-((1H-pyrrolo[2,3-b]pyridin-5-yl)oxy)-4-(4-((4′-chloro-5,5-dimethyl-3,4,5,6-tetra-hydro-[1,1′-biphenyl]-2-yl)methyl)piperazin-1-yl)-N-(((R)-3-(((R)-3-methyl-4-(oxetan-3-yl)piperazin-1-yl)methyl)-5-nitro-3,4-dihydro-2H-benzo[b][1,4]oxazin-7-yl)sulfonyl) benzamide], the IC50 in experiment [1] is 2 nM; in experiment [2], 1 nM.

On to `C[C@@H]1CN(C[C@H]2COc3cc(S(=O)(=O)NC(=O)c4ccc(N5CCN(CC6=C(c7ccc(Cl)cc7)CC(C)(C)CC6)CC5)cc4Oc4cnc5[nH]ccc5c4)cc([N+](=O)[O-])c3N2)CCO1` [Example 2-32, 2-((1H-pyrrolo[2,3-b]pyridin-5-yl)oxy)-4-(4-((4′-chloro-5,5-dimethyl-3,4,5,6-tetrahydro-[1,1′-biphenyl]-2-yl)methyl)piperazin-1-yl)-N-(((S)-3-(((R)-2-methylmorpholino)meth-yl)-5-nitro-3,4-dihydro-2H-benzo[b][1,4]oxazin-7-yl)sulfonyl)benzamide], for which the concentration for half-maximal inhibition (IC50) in experiment [1] came to 34 nM; in experiment [2], 18 nM.

As for `CN(C)C(=O)[C@H]1COc2cc(S(=O)(=O)NC(=O)c3ccc(N4CCN(CC5=C(c6ccc(Cl)cc6)CC(C)(C)CC5)CC4)cc3Oc3cnc4[nH]ccc4c3)cc([N+](=O)[O-])c2N1` [Example 2-102, (R)-7-(N-(2-((1H-pyrrolo[2,3-b]pyridin-5-yl)oxy)-4-(4-((4′-chloro-5,5-dimethyl-3,4,5,6-tetrahydro-[1,1′-biphenyl]-2-yl)methyl)pi-perazin-1-yl)benzoyl)sulfamoyl)-N,N-dimethyl-5-nitro-3,4-dihydro-2H-benzo[b] [1,4]oxazine-3-carboxamide], the concentration for half-maximal inhibition (IC50) in experiment [1] worked out at 95 nM; in experiment [2], 10 nM.

As for `CC1(C)CCC(CN2CCN(c3ccc(C(=O)NS(=O)(=O)c4cc5c(c([N+](=O)[O-])c4)N[C@H](CN=S4(=O)CCOCC4)CO5)c(Oc4cnc5[nH]ccc5c4)c3)CC2)=C(c2ccc(Cl)cc2)C1` [Example 2-72, (R)-2-((1H-pyrrolo[2,3-b]pyridin-5-yl)oxy)-4-(4-((4′-chloro-5,5-dimethyl-3,4,5,6-tetra-hydro-[1,1′-biphenyl]-2-yl)methyl)piperazin-1-yl)-N-((5-nitro-3-(((4-oxido-1,4λ^6-oxa-thian-4-ylidene)amino)methyl)-3,4-dihydro-2H-benzo[b][1,4]oxazin-7-yl)sulfonyl)ben-zamide], the IC50 was found to be 24 nM in experiment [1] and 6 nM in experiment [2].
